Laboratory results from US20020031795A1, “Nitrocoumarins for detecting all micro-organisms” (priority 1998, published 2002).

Legend:
Assay in all cases: Reduction of the indicator by wild Enterobacteriaceae strain (fluorescence)
Assay type in all cases: cell-based
Conditions in all cases: 0.17 mmol/l
Citrobacter diversus = test system: Citrobacter diversus
Procedure: (§1) The E. coli was grown for 24 hours at 35° C. on Columbia agar supplemented with sheep blood. The bacteria were then resuspended in sterile, distilled water and their density was adjusted to 0.5 on the MacFarland scale (i.e. about 10^8 cells/ml). This suspension was then diluted 100-fold in sterile Mueller-Hinton broth (i.e. to a final density of about 10^6 cells/ml).
(§2) Fifty microliters of each nitrocoumarin solution plus 50 μl of bacterial suspension were then added to the wells of a microtiter plate. The plates were incubated at 35° C. and the optical density and fluorescence of each well was read every 30 min for a total of 4 hours. Optical density (690 nm) readings were made using an Anthos 2001 spectrophotometer (Labtech International Limited), and fluorescence (excitation at 365 nm and emission at 440 nm) readings were made on a Biolite F1 2001 fluorometer (Labtech International Limited).
(§3) This experiment was designed to investigate whether or not it would be possible to detect Enterobacteriaceae other than E. coli using 7-nitrocoumarin-3-carboxylic acid. The conditions for this experiment were similar to those described for the first experiment (section A).
(§4) Five wild strains belonging to the species Citrobacter diversus, Enterobacter agglomerans, Hafnia alvei, Morganella morganii and Shigella sonnei were tested

Enterobacter agglomerans = test system: Enterobacter agglomerans
Procedure: as §1, §2, §3, §4

Morganella morganii = test system: Morganella morganii
Procedure: as §1, §2, §3, §4

SMILES: O=C(O)c1cc2ccc([N+](=O)[O-])cc2oc1=O [7-nitrocoumarin-3-carboxylic acid]
- Fluorescent signal (Citrobacter diversus; 0 min): 0
- Fluorescent signal (Citrobacter diversus; 30 min): 3
- Fluorescent signal (Citrobacter diversus; 60 min): 3
- Fluorescent signal (Citrobacter diversus; 90 min): 34
- Fluorescent signal (Citrobacter diversus; 120 min): 92
- Fluorescent signal (Citrobacter diversus; 150 min): 281
- Fluorescent signal (Citrobacter diversus; 180 min): 546
- Fluorescent signal (Citrobacter diversus; 210 min): 1209
- Fluorescent signal (Citrobacter diversus; 240 min): 5393
- Fluorescent signal (Enterobacter agglomerans; 0 min): 0
- Fluorescent signal (Enterobacter agglomerans; 30 min): −15
- Fluorescent signal (Enterobacter agglomerans; 60 min): −3
- Fluorescent signal (Enterobacter agglomerans; 90 min): 9
- Fluorescent signal (Enterobacter agglomerans; 120 min): 74
- Fluorescent signal (Enterobacter agglomerans; 150 min): 199
- Fluorescent signal (Enterobacter agglomerans; 180 min): 501
- Fluorescent signal (Enterobacter agglomerans; 210 min): 1246
- Fluorescent signal (Enterobacter agglomerans; 240 min): 4099
- Fluorescent signal (Morganella morganii; 0 min): 0
- Fluorescent signal (Morganella morganii; 30 min): −42
- Fluorescent signal (Morganella morganii; 60 min): −24
- Fluorescent signal (Morganella morganii; 90 min): −15
- Fluorescent signal (Morganella morganii; 120 min): 31
- Fluorescent signal (Morganella morganii; 150 min): 95
- Fluorescent signal (Morganella morganii; 180 min): 403
- Fluorescent signal (Morganella morganii; 210 min): 2170
- Fluorescent signal (Morganella morganii; 240 min): 8128
